Experimental data: PMC6680226, “Peptoid Efficacy against Polymicrobial Biofilms Determined by Using Propidium Monoazide‐Modified Quantitative PCR” (Chembiochem, 2016)
“Also recorded” adds a separate entry of the source. Read-outs that look alike come from different tables or passages of the source.

What was measured:
[1] = test system: trypsin; assay type: in vitro ADME; conditions: trypsin 0.5 μg/mL, Tris·HCl 50 mM pH 7.8 with CaCl2 9 mM, 24 h; MALDI-TOF MS read-out
Protocol: Proteolytic stability studies: Peptoid stability was confirmed by comparing the tryptic digestion of 7 with LL‐37 (Innovagen AB, Lund, Sweden). Stock solutions (5 mg mL^−1) of 7 and LL‐37 were prepared, and samples (7.5 μL) were incubated with trypsin (0.5 μg mL^−1) and incubation buffer (37.5 μL, Tris⋅HCl (50 mM, pH 7.8) containing CaCl2 (9 mM)). After 0 h (for mass spectrometric verification) or 24 h, the reaction mixture was acidified by addition of TFA (10 %, 50 μL) to denature the enzyme and stop enzyme activity. The samples were air‐dried and then reconstituted in acetonitrile/water/TFA (50 μL, 40:59.5:0.5, v/v/v), and an aliquot (1 μL) was placed onto a stainless steel MALDI target. Samples were covered immediately with matrix (1 μL, α‐cyano‐4‐hydroxycinnamic acid (53 mM in acetonitrile/water/TFA, 70:29.98:0.02, v/v/v)). MALDI‐TOF MS was performed on a linear TOF Voyager DE‐mass spectrometer (PerSeptive Biosystems, Farmingham, MA, USA). The samples were analysed in positive detection mode, and internal mass calibration with known standards established the mass accuracy to ±0.1 %. Fifty laser scans were averaged for each sample, and variable laser intensity was used to ensure the most representative mass spectra for the wells.
4. Proteolytic Stability Study […]

[2] = test system: HaCaT; assay: alamarBlue cytotoxicity assay, HaCaT keratinocytes; conditions: for ED50 HaCaT: alamarBlue viability, 2-100 μM from DMSO stock, 1 h with compound then 24 h incubation at 37 °C, fluorescence, triplicate on a minimum of two occasions; for Toxicity to HaCaT cells (in words): alamarBlue, up to 100 μM
Protocol: (§7) Peptoid cytotoxicity studies: All 18 peptoids were tested for cytotoxicity against HepG2 epithelial (Sigma–Aldrich) and HaCaT keratinocyte (ThermoFisher) cell lines, Cytotoxicity analyses were performed in Costar 96‐well plates (Thermo Fisher Scientific) with alamarBlue (Invitrogen/Thermo Fisher Scientific) for cell viability detection as described by the manufacturer. HepG2 and HaCaT cells were grown at 37 °C under CO2 (5 %) in DMEM (high glucose) supplemented with heat‐inactivated foetal bovine sera (FBS, 10 %; Biosera, Uckfield, UK) and penicillin/streptomycin (1 %). Cells were counted in a Neubauer Improved Haemocytometer. HepG2 or HaCaT cells were seeded 24 h prior to treatment in 96‐well plates (2×10^4 cells per well in 100 μL). After 24 h, cells were incubated in triplicate with a dilution series of compound (2–100 μM from 5 mM stock solutions in DMSO) in the medium (50 μL) for 1 h. An aliquot (40 μL) was removed from each well, before the addition of medium (90 μL) followed by incubation for 24 h (37 °C, 5 % CO2). Then, alamarBlue (10 μL) was added to each well before incubation (2 h for Hep G2, 1 h for HaCaT) prior to assessing cell viability in a fluorescent plate reader (Biotek, Winooski, VT; λ ex=560 nm, λ em=600 nm). All data were measured in triplicate on a minimum of two occasions.
(§8) Toxicity was determined using an alamarBlue® cytotoxicity assay.

[3] = test system: HepG2; assay: alamarBlue cytotoxicity assay, HepG2 cells; conditions: for ED50 HepG2: alamarBlue viability, 2-100 μM from DMSO stock, 1 h with compound then 24 h incubation at 37 °C, fluorescence, triplicate on a minimum of two occasions; for Toxicity to HepG2 cells (in words): alamarBlue, up to 100 μM
[4] = test system: E. coli monospecies biofilm; assay: PMA-qPCR viable cell number, E. coli monospecies biofilm; assay type: cell-based, Escherichia coli; conditions: peptoid 100 μM, 24 h; n=3
Protocol: (§1) Preparation and treatment of single‐species biofilms: Overnight cultures of C. albicans were washed and resuspended (1.0×10^6 cells per mL) in RPMI‐1640 (Sigma–Aldrich). Overnight cultures of S. aureus or E. coli were washed and resuspended (5.0×10^6 cells per mL) in BHI broth. Samples (100 μL) were added to microtitre plate wells (Thermo Fisher Scientific), and a biofilm was allowed to form for 4 h. Wells were washed with PBS (3×200 μL) to facilitate removal of planktonic cells, and the biofilms were then treated with 1–18 (100 μM in the appropriate medium). Plates were incubated for a further 24 h to allow biofilm maturation. After removal of planktonic cells by washing, biofilms were quantified by the crystal violet assay or by PMA‐qPCR.
(§2) Biofilm quantification by PMA‐modified qPCR: In order to determine the bactericidal and fungicidal activity of peptoids against single‐species and polymicrobial biofilms, the biofilms were detached from the microtitre plate wells prior to quantification. The wells were washed as above, then BHI broth (100 μL) was added and the plate was sealed. Biofilm detachment was achieved by sonication for 5 min in an ultrasonic bath (Dawe, Hayes, Middlesex, UK). The remaining cells were then collected in BHI (80 μL). […]
(§3) Generation of standard curves for PMA‐qPCR: For quantification of C. albicans, S. aureus and E. coli in single‐species and polymicrobial biofilms, DNA standards were prepared by extraction of DNA from planktonic organisms with the microLYSIS‐Plus kit and purification with a DNeasy kit (Qiagen). DNA standards (10^1–10^6 cells) were used in PMA‐qPCR assays to generate standard curves from which the numbers of living organisms within the biofilms could be determined.

[5] = test system: C. albicans (NCTC 3179) biofilm; assay: Crystal violet assay, C. albicans monospecies biofilm; assay type: cell-based, Candida albicans; conditions: peptoid 100 μM, 24 h treatment of 4 h biofilm; n=3
Protocol: (§4) Microorganism strains and growth conditions: C. albicans (NCTC 3179) was subcultured aerobically on Sabouraud agar plates, prepared by using Sabouraud dextrose powder and agar (Oxoid, ThermoFisher) and propagated in yeast peptone dextrose broth. E. coli (ATCC 29522) and S. aureus (NCTC 6571) were grown on blood agar plates (Fanin, Dublin, Ireland) and propagated in brain heart infusion (BHI) broth (Oxoid, ThermoFisher).
as §1
(§5) Biofilm quantification by crystal violet assay: Washed biofilms were fixed with methanol (100 μL) for 10 min. Following removal of methanol, the wells were air dried and stained with crystal violet solution (Clin‐Tech, Guildford, UK) for 20 min at room temperature. Excess stain was removed by washing, then the plate was air‐dried and bound crystal violet was re‐solubilised in acetic acid (33 %, 160 μL) prior to reading at 570 nm in a GENios microtitre plate reader (Tecan, Zürich, Switzerland).

[6] = test system: E. coli (ATCC 29522) biofilm; assay: Crystal violet assay, E. coli monospecies biofilm; assay type: cell-based, Escherichia coli; conditions: peptoid 100 μM, 24 h treatment of 4 h biofilm; n=3
Protocol: as §4, §1, §5

[7] = test system: S. aureus (NCTC 6571) biofilm; assay: Crystal violet assay, S. aureus monospecies biofilm; assay type: cell-based, Staphylococcus aureus; conditions: peptoid 100 μM, 24 h treatment of 4 h biofilm; n=3
Protocol: as §4, §1, §5

[8] = test system: S. aureus in polymicrobial biofilm with C. albicans; assay: PMA-qPCR, S. aureus within C. albicans-S. aureus polymicrobial biofilm; assay type: cell-based, Staphylococcus aureus; conditions: 24 h; for Reduction of cell numbers of S. aureus in mixed-species biofilm: peptoid 10 μM, PMA-qPCR
Protocol: (§6) Preparation and treatment of polymicrobial biofilms: Overnight cultures of C. albicans were prepared in microtitre plates as above, and allowed to adhere for 4 h to facilitate initial biofilm formation. Planktonic C. albicans cells were removed as above before the addition of S. aureus or E. coli (100 μL, 5.0×10^6 cells per mL). Bacteria were allowed to adhere to the C. albicans biofilms for 4 h to facilitate polymicrobial biofilm formation. Following a washing step, the biofilms were then treated with peptoid (10–100 μM), and incubated for a further 24 h to allow biofilm maturation. Wells were washed as above, and the polymicrobial biofilms were quantified by PMA‐modified qPCR.
Biofilm quantification by PMA‐modified qPCR: In order to determine the bactericidal and fungicidal activity of peptoids against single‐species and polymicrobial biofilms, the biofilms were detached from the microtitre plate wells prior to quantification. The wells were washed as above, then BHI broth (100 μL) was added and the plate was sealed. Biofilm detachment was achieved by sonication for 5 min in an ultrasonic bath (Dawe, Hayes, Middlesex, UK). The remaining cells were then collected in BHI (80 μL). PMA (20 μL, 2 mM in broth;47 Biotium, Fremont, CA) was added to the biofilm suspensions […] and incubated (37 °C, 5 min) prior to photoactivation with a broad‐spectrum LED flood light (60 LED, 0.1 W) placed 15 cm from the tubes (mixed by inversion during the 20 min photoactivation step).48 DNA was extracted by using a microLYSIS‐Plus kit (Microzone, Haywards Heath, UK), and qPCR was performed in a Mx3005P qPCR System (Agilent Technologies).49, 50, 51 See the Tables in the Supporting Information.
as §3

[9] = test system: C. albicans monospecies biofilm; assay: PMA-qPCR viable cell number, C. albicans monospecies biofilm; assay type: cell-based, Candida albicans; conditions: peptoid 100 μM, 24 h; n=3
Protocol: as §1, §2, §3

[10] = test system: HepG2
Protocol: as §7, §8

[11] = test system: HaCaT
Protocol: as §7, §8

[12] = test system: C. albicans in polymicrobial biofilm with S. aureus; assay: PMA-qPCR, C. albicans within C. albicans-S. aureus polymicrobial biofilm; assay type: cell-based, Candida albicans; conditions: peptoid 100 μM, 24 h; n=3
Protocol: as §6, §2, §3

Compound	ED50 HaCaT [2]	ED50 HepG2 [3]	also measured
CC[C@H](C)[C@H](NC(=O)[C@H](CCCCN)NC(=O)[C@H](CCC(=O)O)NC(=O)[C@H](CCCCN)NC(=O)[C@H](CO)NC(=O)[C@H](CCCCN)NC(=O)[C@H](CCCNC(=N)N)NC(=O)[C@H](Cc1ccccc1)NC(=O)[C@H](Cc1ccccc1)NC(=O)[C@H](CC(=O)O)NC(=O)CNC(=O)[C@H](CC(C)C)NC(=O)[C@@H](N)CC(C)C)C(=O)NCC(=O)N[C@@H](CCCCN)C(=O)N[C@@H](CCC(=O)O)C(=O)N[C@@H](Cc1ccccc1)C(=O)N[C@@H](CCCCN)C(=O)N[C@@H](CCCNC(=N)N)C(=O)N[C@H](C(=O)N[C@H](C(=O)N[C@@H](CCC(N)=O)C(=O)N[C@@H](CCCNC(=N)N)C(=O)N[C@H](C(=O)N[C@@H](CCCCN)C(=O)N[C@@H](CC(=O)O)C(=O)N[C@@H](Cc1ccccc1)C(=O)N[C@@H](CC(C)C)C(=O)N[C@@H](CCCNC(=N)N)C(=O)N[C@@H](CC(N)=O)C(=O)N[C@@H](CC(C)C)C(=O)N[C@H](C(=O)N1CCC[C@H]1C(=O)N[C@@H](CCCNC(=N)N)C(=O)N[C@H](C(=O)N[C@@H](CCC(=O)O)C(=O)N[C@@H](CO)C(=O)O)[C@@H](C)O)C(C)C)[C@@H](C)CC)C(C)C)[C@@H](C)CC [LL‐37]	–	–	Degradation after treatment with trypsin [1]: degraded to peptide fragments
(NLysNpheNphe)2 [Peptoid 3]	> 100 µM	> 100 µM	–
(NLysNpheNphe)3 [Peptoid 2]	> 100 µM	> 100 µM	–
(NLysNpheNphe)4 [Peptoid 1]	36 ± 1 µM	> 100 µM	–
(NLysNspeNspe)2 [Peptoid 6]	> 100 µM	> 100 µM	–
(NLysNspeNspe)3 [Peptoid 5]	> 100 µM	> 100 µM	Toxicity to HaCaT cells (in words) [2]: negligible toxicity; Reduction in viable cell number, E. coli monospecies biofilm (PMA-qPCR) [4]: significant reduction in cell number; Toxicity to HepG2 cells (in words) [3]: negligible toxicity; Efficacy against C. albicans monospecies biofilm (biomass, crystal violet) [5]: amongst the most efficacious; Efficacy against E. coli monospecies biofilm (biomass, crystal violet) [6]: amongst the most efficacious; Efficacy against S. aureus monospecies biofilm (biomass, crystal violet) [7]: amongst the most efficacious; Reduction of cell numbers of S. aureus in mixed-species biofilm [8]: ~100%; Reduction in S. aureus cell number in mixed biofilm with C. albicans (PMA-qPCR) ([8]; peptoid 100 μM, n=3): better able to reduce the cell count; Reduction in viable cell number, C. albicans monospecies biofilm (PMA-qPCR) [9]: significant reduction in cell number; also recorded: the greatest reduction in cell number
(NLysNspeNspe)4 [Peptoid 4]	–	–	ED50 HepG2 [10]: 29 ± 1 µM; ED50 HaCaT [11]: 20 ± 1 µM
(NaeNpheNphe)2 [Peptoid 9]	> 100 µM	> 100 µM	–
(NaeNpheNphe)3 [Peptoid 8]	> 100 µM	> 100 µM	–
(NaeNpheNphe)4 [Peptoid 7]	> 100 µM	> 100 µM	Toxicity to HaCaT cells (in words) [2]: negligible toxicity; Reduction in viable cell number, E. coli monospecies biofilm (PMA-qPCR) [4]: significant reduction in cell number; Toxicity to HepG2 cells (in words) [3]: negligible toxicity; Efficacy against C. albicans monospecies biofilm (biomass, crystal violet) [5]: amongst the most efficacious; Efficacy against E. coli monospecies biofilm (biomass, crystal violet) [6]: amongst the most efficacious; Efficacy against S. aureus monospecies biofilm (biomass, crystal violet) [7]: amongst the most efficacious; Reduction in C. albicans cell number in mixed biofilm with S. aureus (PMA-qPCR) [12]: the greatest reduction; Reduction of cell numbers of S. aureus in mixed-species biofilm [8]: ~100%; Reduction in viable cell number, C. albicans monospecies biofilm (PMA-qPCR) [9]: significant reduction in cell number
(NaeNspeNspe)2 [Peptoid 12]	> 100 µM	> 100 µM	–
(NaeNspeNspe)3 [Peptoid 11]	> 100 µM	> 100 µM	–
(NaeNspeNspe)4 [Peptoid 10]	26 ± 2 µM	41 ± 2 µM	–
(NahNpheNphe)2 [Peptoid 15]	> 100 µM	> 100 µM	–
(NahNpheNphe)3 [Peptoid 14]	> 100 µM	> 100 µM	–
(NahNpheNphe)4 [Peptoid 13]	> 100 µM	> 100 µM	–
(NahNspeNspe)2 [Peptoid 18]	> 100 µM	> 100 µM	–
(NahNspeNspe)4 [Peptoid 16]	23 ± 1 µM	41 ± 1 µM	–
